Measured values taken from EP2540303A1, “Divalent cation containing compositions and methods for treating and/or preventing enzymatic irritation” (Johnson & Johnson Consumer Companies Inc., priority 2011, dated 2013).
Several values for one entry are separate records, joined by “and”; a condition that tells them apart may be missing. Equal values may be shown once.

Key:
trypsin [1] = assay: Trypsin inhibition (EnzChek protease assay kit), divalent cation salts with and without talc; format: biochemical; settings: for % synergistic activity relative to hypothetic additive value: (with talc value minus additive value) divided by additive value; for Salt alone trypsin inhibition activities (%): no talc
Description: (§1) The objective of the following experiment was to determine whether and to what extent adding a divalent cation to talc inhibited trypsin activity in an in vitro assay. The inhibition of trypsin-induced cleavage of a fluorescent casein peptide was measured using the EnzChek™ protease assay kit, following manufacturer's instructions (EnzChek™ Protease Assay Kits Product Information, Revised; Molecular Probes, Eugene OR). […] Trypsin working solution (Sigma, St. Louis, MO, unit/mL) was prepared in a portion of the digestion buffer provided in the assay kit (the digestion buffer provided in the assay kit comprises, in total, 260mL of 200nM Tris-HCl, pH7.8, containing 40mM sodium azide). Stock solution of BODIPY FL casein (the trypsin substrate, comprising a casein derivative labeled with a pH-insensitive green fluorescent protein, mg/mL) was prepared by adding 0.2 mL of phosphate buffered saline (PBS) to the substrate vials provided in kit, allowing sufficient time at room temperature for the substrate to dissolve fully (each substrate vial provided in the kit contains 200µg of BODIPY FL casein lyophilized from phosphate-buffered saline (PBS)). The final substrate working solution (10 microgram/mL) was prepared by dilution of 0.2 mL of the stock solution of BODIPY FL with 19.8 mL of digestion buffer (pH 7.8). To detect enzyme activity, 100µL of the BODIPY FL casein working solution was added to 50µL of trypsin working solution (containing 100U of trypsin) and 50µl of the solution of the required test material (if required) . Following incubation of the trypsin, with or without the test materials, with the BODIPY fluorescent casein substrate, at room temperature for one hour, fluorescence was measured (excitation 485 nm /emission 530 nm) using a SpectraMax microtiter plate reader (Molecular Devices Corporation, Sunnyvale, CA) and Softmax Pro software (Molecular Devices Corporation). Each experiment was performed in three replicates. The percentage activity is quoted with comparison to results obtained from the assay performed without the addition of a test substrate.

trypsin [2] = assay: Trypsin inhibition (EnzChek protease assay kit), zinc oxide/acid mixtures and zinc oxide containing formulations; format: biochemical; settings: Table 5
Description: The objective of the following experiment was to determine whether and to what extent adding an acid to a formulation containing zinc oxide had on inhibition of trypsin activity in an in vitro assay. The inhibition of trypsin-induced cleavage of a fluorescent casein peptide was measured using the EnzChek^TM protease assay kit, following manufacturer's instructions (EnzChek^TM Protease Assay Kits Product Information, Revised; Molecular Probes, Eugene OR). Mixtures of zinc oxide and acid at different concentrations were prepared in lx PBS (pH 7.4) and their pH was recorded as listed in the Tables 5-8. Trypsin working solution (Sigma, St. Louis, MO, unit/mL) was prepared in a portion of the digestion buffer provided in the assay kit (the digestion buffer provided in the assay kit comprises, in total, 260mL of 200nM Tris-HCl, pH7.8, containing 40mM sodium azide). Stock solution of BODIPY FL casein (the trypsin substrate, comprising a casein derivative labeled with a pH-insensitive green fluorescent proten, mg/mL) was prepared by adding 0.2 mL of phosphate buffered saline (PBS) to the substrate vials provided in kit, allowing sufficient time at room temperature for the substrate to dissolve fully (each substrate vial provided in the kit contains 200µg of BODIPY FL casein lyophilized from phosphate-buffered saline (PBS)). The final substrate working solution (10 microgram/mL) was prepared by dilution of 0.2 mL of the stock solution of BODIPY FL with 19.8 mL of digestion buffer (pH 7.8). To detect enzyme activity, 100µL of the BODIPY FL casein working solution was added to 50µL of trypsin working solution (containing 100U of trypsin) and 50 µl of the solution of the required test material (if required). Following incubation of the trypsin, with or without the test materials (50 µl), with the BODIPY fluorescent casein substrate, at room temperature for one hour, fluorescence was measured (excitation 485 nm /emission 530 nm) using a SpectraMax microtiter plate reader (Molecular Devices Corporation, Sunnyvale, CA) and Softmax Pro software (Molecular Devices Corporation). Each experiment was performed in three replicates.
For preparations, samples were diluted in lx PBS at 1:10 ratio and subjected to centrifugation at 13,200 rpm for 1 min using Eppendorf Centrifuge (Model 5415D, Eppendorf AG, Hamburg, Germany) to remove the solid formulation ingredients. The supernatants (50 µl) were used for trypsin inhibitory activity analyses as described above. For preparations, samples were diluted in 10, or 20 or 40 % ethanol and subjected to centrifugation at 13,200 rpm for 1 min using Eppendorf Centrifuge (Model 5415D, Eppendorf AG, Hamburg, Germany) to remove the solid formulation ingredients. The supernatants (50 µl) were used for trypsin inhibition assay. […] The percentage activity is quoted with comparison to results obtained from the assay performed without the addition of a test substrate.
For the above study, the results are an average of three independent experiments, wherein the samples, which were diluted at 1:10 ratio in lx PBS solutions containing 10%, 20% or 40% ethanol, were tested in triplicates.

trypsin [3] = molecular target: T1, trypsin (Bos taurus, UniProt P00760); settings: at low concentrations, i.e., around 0.001 M; cited from earlier work
T1 sequence (P00760 24-246): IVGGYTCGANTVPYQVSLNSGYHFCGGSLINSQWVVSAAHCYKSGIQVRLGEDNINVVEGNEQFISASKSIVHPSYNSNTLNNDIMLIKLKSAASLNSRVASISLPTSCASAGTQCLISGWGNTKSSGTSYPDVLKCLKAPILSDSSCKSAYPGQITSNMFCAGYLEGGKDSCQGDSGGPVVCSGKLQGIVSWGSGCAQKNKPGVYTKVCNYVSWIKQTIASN

trypsin [4] = assay: Inhibition of trypsin-induced cleavage of fluorescent casein (EnzChek protease assay kit), salts in PBS; format: biochemical; settings: acetate monohydrate
Description: as §1, with “The” for “The objective of the following experiment was to determine whether and to what extent adding a divalent cation to talc inhibited trypsin activity in an in vitro assay. The”, “Following incubation of the trypsin, with or without the test materials, with the BODIPY fluorescent casein substrate, at room temperature for one hour, fluorescence was measured (excitation 485 nm /emission 530 nm) using a SpectraMax microtiter plate reader (Molecular Devices Corporation, Sunnyvale, CA) and Softmax Pro software (Molecular Devices Corporation). Each experiment was performed in three replicates. The percentage activity is quoted with comparison to results obtained from the assay performed without the addition of a test substrate.” left out

[5] = Table 3, salt alone plus talc alone (8.55%), all at 0.1% (g/mL)
[6] = Table 4, 0.1% MgCl2 and 1% talc
[7] = Table 4, 0.5% MgCl2 and 1% talc

In the case of `CC(=O)[O-].CC(=O)[O-].O.[Ca+2]` [Calcium acetate monohydrate], the “% synergistic activity relative to hypothetic additive value” (trypsin [1]; Table 3, all at 0.1% (g/mL)) is reported as 3.10%, the “Salt alone trypsin inhibition activities (%)” value (trypsin [1]; Table 3, salt 0.1% (g/mL)) is reported as 15.31% and the “Hypothetically calculated additive value of salt and Talc trypsin inhibition activities (%)” value (trypsin [1]; [5]) is reported as 23.86%.

In the case of `CC(=O)O` [acetic acid], the “% Trypsin inhibitory activity” value (trypsin [2]; No ZnO, 0.01 % acetic acid, pH 6.84) is reported as -11.18+/-2.61% and the “% Trypsin inhibitory activity” value (trypsin [2]; No ZnO, 0.05% acetic acid, pH 4.75) is reported as 25.81+/-2.13%.

For `O.O.O.O.[Cl][Fe][Cl]` [Iron (II) chloride tetrahydrate], the “% synergistic activity relative to hypothetic additive value” (trypsin [1]; Table 3, all at 0.1% (g/mL)) was -12.35%, the “Salt alone trypsin inhibition activities (%)” value (trypsin [1]; Table 3, salt 0.1% (g/mL)) was 65.07% and the “Hypothetically calculated additive value of salt and Talc trypsin inhibition activities (%)” value (trypsin [1]; [5]) was 73.62%.

For `[Cu+2]` [Cu++], the “inhibition of the esterase activity of trypsin” value (shortened to “inhibition … of trypsin”) (trypsin [3]) is listed as “inhibited the esterase activity of trypsin”.

For `[Zn+2]` [Zn++], the “inhibition … of trypsin” value (trypsin [3]) is given as “to a lesser extent”.

For `CC(=O)[O-].CC(=O)[O-].O.[Cu+2]` [Copper (II) acetate monohydrate], the “% Trypsin inhibitory activity” value (trypsin [4]) was 66.53% and 95.17%.

With `CC(=O)[O-].CC(=O)[O-].O.O.O.O.[Mg+2]` [Magnesium acetate tetrahydrate] the “% synergistic activity relative to hypothetic additive value” (trypsin [1]; Table 3, all at 0.1% (g/mL)) was 90.09%, the “Salt alone trypsin inhibition activities (%)” value (trypsin [1]; Table 3, salt 0.1% (g/mL)) was 0.83% and the “Hypothetically calculated additive value of salt and Talc trypsin inhibition activities (%)” value (trypsin [1]; [5]) was 9.38%.

For `[Ca+2].[Cl-].[Cl-]` [Calcium chloride], the “% synergistic activity relative to hypothetic additive value” (trypsin [1]; Table 3, all at 0.1% (g/mL)) was -0.26%, the “Salt alone trypsin inhibition activities (%)” value (trypsin [1]; Table 3, salt 0.1% (g/mL)) was 17.95% and the “Hypothetically calculated additive value of salt and Talc trypsin inhibition activities (%)” value (trypsin [1]; [5]) was 26.50%.

For `[Cl-].[Cl-].[Mg+2]` [Magnesium chloride], the “% synergistic activity relative to hypothetic additive value” (trypsin [1]; Table 3, all at 0.1% (g/mL)) was 50.75%, the “Salt alone trypsin inhibition activities (%)” value (trypsin [1]; Table 3, salt 0.1% (g/mL)) was 4.75% and the “Hypothetically calculated additive value of salt and Talc trypsin inhibition activities (%)” value (trypsin [1]; [5]) was 13.30%. The “With 1% Talc trypsin inhibition activities (%)” value (trypsin [1]; Table 4, 0.1% MgCl2 (g/mL) with 1% talc) was 25.43%, the “Salt alone trypsin inhibition activities (%)” value (trypsin [1]; Table 4, 0.1% MgCl2 (g/mL)) was 9.02% and the “% synergistic activity relative to hypothetical additive value” (trypsin [1]; [6]) was 104.42%. For the same compound, the “Hypothetically calculated additive value of salt and Talc trypsin inhibition activities (%)” value (trypsin [1]; [6]) was 12.44%, the “With 1% Talc trypsin inhibition activities (%)” value (trypsin [1]; Table 4, 0.5% MgCl2 (g/mL) with 1% talc) was 32.84% and the “Salt alone trypsin inhibition activities (%)” value (trypsin [1]; Table 4, 0.5% MgCl2 (g/mL)) was 19.51%. For the same compound, the “% synergistic activity relative to hypothetical additive value” (trypsin [1]; [7]) was 43.22%, the “Hypothetically calculated additive value of salt and Talc trypsin inhibition activities (%)” value (trypsin [1]; [7]) was 22.93% and the “With 1% Talc trypsin inhibition activities (%)” value (trypsin [1]; Table 4, 1% MgCl2 (g/mL) with 1% talc) was 40.42%. For the same compound, the “Salt alone trypsin inhibition activities (%)” value (trypsin [1]; Table 4, 1% MgCl2 (g/mL)) was 22.13%, the “% synergistic activity relative to hypothetical additive value” (trypsin [1]; Table 4, 1% MgCl2 and 1% talc) was 58.20% and the “Hypothetically calculated additive value of salt and Talc trypsin inhibition activities (%)” value (trypsin [1]; Table 4, 1% MgCl2 and 1% talc) was 25.55%. For the same compound, the “trypsin inhibition (in words)” value (trypsin [1]; combination of talc and magnesium chloride) was “synergistic increase in trypsin inhibition” and the “trypsin inhibitory activity (in words)” value (trypsin [1]; talc or magnesium chloride alone) was “moderate to low levels of trypsin inhibitory activity”.

With `[Cl-].[Cl-].[Zn+2]` [Zinc chloride] the “% synergistic activity relative to hypothetic additive value” (trypsin [1]; Table 3, all at 0.1% (g/mL)) was -13.01%, the “Salt alone trypsin inhibition activities (%)” value (trypsin [1]; Table 3, salt 0.1% (g/mL)) was 81.07% and the “Hypothetically calculated additive value of salt and Talc trypsin inhibition activities (%)” value (trypsin [1]; [5]) was 89.62%.

With `CC(=O)[O-].CC(=O)[O-].[Zn+2]` [Zinc acetate dihydrate] the “% synergistic activity relative to hypothetic additive value” (trypsin [1]; Table 3, all at 0.1% (g/mL)) was -15.70%, the “Salt alone trypsin inhibition activities (%)” value (trypsin [1]; Table 3, salt 0.1% (g/mL)) was 62.84% and the “Hypothetically calculated additive value of salt and Talc trypsin inhibition activities (%)” value (trypsin [1]; [5]) was 71.39%.

In the case of `[Hg+2]` [Hg++], the “inhibition … of trypsin” value (trypsin [3]) is listed as “inhibited the esterase activity of trypsin”.

For `[Ag+]` [Ag+], the “inhibition … of trypsin” value (trypsin [3]) is listed as “inhibited the esterase activity of trypsin”.

With `[O]=[Zn]` [ZnO, zinc oxide] the “% Trypsin inhibitory activity” value (trypsin [2]; 0.1% ZnO, 0.01 % acetic acid, pH 7.28) was 1.85+/-1.34%, the “% Trypsin inhibitory activity” value (trypsin [2]; 0.1% ZnO, 0.05% acetic acid, pH 6.03) was 49.16+/-1.43% and the “% Trypsin inhibitory activity” value (trypsin [2]; 0.1% ZnO, No acetic acid, pH 7.61) was -2.6+/-2.76%. The “% Trypsin inhibitory activity” value (trypsin [2]; 1% ZnO, 0.01 % acetic acid, pH 7.85) was 15.82+/-1.68%, the “% Trypsin inhibitory activity” value (trypsin [2]; 1% ZnO, 0.05% acetic acid, pH 6.08) was 58.19+/-0.73% and the “% Trypsin inhibitory activity” value (trypsin [2]; 1% ZnO, No acetic acid, pH 8.07) was 5.40 +/- 1.24%. For the same compound, the “trypsin inhibitory activity (in words)” value (trypsin [2]; mixtures of zinc oxide and acetic acid) was “have trypsin inhibitory activity, which is dose-dependent” and the “protease activity (in words)” value (trypsin [2]; zinc oxide without acid) was “minimal protease activity”.
